Earlier results on six compounds are cited in PMC8435859 (Frontiers in Cellular and Infection Microbiology, 2021).

pIC50, pKi: −log10 of the molar value. Values after ≈ are worked out from the molar mass of the structure shown. Structures can show the parent of a compound that is named as a salt.

One data set relates to CYP2B6. Further details: method as in ref Cheng SenSung et al., Journal of Agricultural & Food Chemistry, 2012, 60(1):124-8. The following applies: ref Cheng SenSung et al., Journal of Agricultural & Food Chemistry, 2012, 60(1):124-8; read-out: Ki, CYP2B6 inhibition; cited from earlier work.
The subject of a further data set is CYP3A4. More on the design: method as in ref Cheng SenSung et al., Journal of Agricultural & Food Chemistry, 2012, 60(1):124-8. The following applies: ref Cheng SenSung et al., Journal of Agricultural & Food Chemistry, 2012, 60(1):124-8; read-out: Ki, CYP3A4 inhibition; cited from earlier work.
Another data set concerns TNF-α. Further details: method as in ref Singh B, et al. Natural Product Research, 2013, 27(23):2227-2230. The following applies: anti-inflammatory activity; ref Singh B, et al. Natural Product Research, 2013, 27(23):2227-2230.; read-out: IC50, inhibition of TNF-α; cited from earlier work.
The subject of a further data set is IL-1β. Further details: method as in ref Singh B, et al. Natural Product Research, 2013, 27(23):2227-2230. Particulars: anti-inflammatory activity; ref Singh B, et al. Natural Product Research, 2013, 27(23):2227-2230.; read-out: IC50, inhibition of IL-1β; cited from earlier work.
The next data set concerns GABA uptake. More on the design: method as in Johnston G A R et al., Nature. The following applies: ref Johnston G A R et al., Nature; read-out: IC50, inhibition of GABA uptake; cited from earlier work.
The next data set has as its system PGE2 production. More on the design: method as in Kim HJ, et al. Arch Pharm Res. 2016 Feb;39(2):231-239. The following applies: ref Kim HJ, et al. Arch Pharm Res. 2016 Feb;39(2):231-239.; read-out: IC50, inhibitory effect on PGE2 production; cited from earlier work.
The next data set relates to EV71. The following applies: ref Choi HJ et al., Biomol Ther (Seoul). 2016 Sep 1;24(5):552-8; cited from earlier work.
In the next data set the test system is H. pylori. More on the design: method as in ref Sales SM et al., Biomedicine & Pharmacotherapy, 2018, 103:1577-1584. Particulars: ref Sales SM et al., Biomedicine & Pharmacotherapy, 2018, 103:1577-1584; cited from earlier work.
A further data set deals with MDA-MB-231. Further details: method as in ref Sales SM et al., Biomedicine & Pharmacotherapy, 2018, 103:1577-1584. Particulars: one value printed for MCF-7 & MDA-MB-231; ref Sales SM et al., Biomedicine & Pharmacotherapy, 2018, 103:1577-1584; read-out: IC50, decreased MDA-MB-231 survival; cited from earlier work.
Another data set deals with MCF-7. More on the design: method as in ref Sales SM et al., Biomedicine & Pharmacotherapy, 2018, 103:1577-1584. Particulars: one value printed for MCF-7 & MDA-MB-231; ref Sales SM et al., Biomedicine & Pharmacotherapy, 2018, 103:1577-1584; read-out: IC50, decreased MCF-7 survival; cited from earlier work.

As to `C[C@@H]1CC[C@H]2C(C)(C)[C@H]3C[C@@]12CC[C@@]3(C)O` [Cedrol], the values for the negative logarithm of the Ki (pKi) in the data set with CYP2B6 and with CYP3A4 were 6.05 and 5.47, respectively.
In the case of `COc1cc2oc(-c3ccccc3)cc(=O)c2c(O)c1OC` [MOSLOFLAVONE], the negative logarithm of the IC50 (pIC50) – broadly, the IC50 on a negative log10 scale, so that one unit is a factor of ten – with TNF-α was 6.15; in the data set on IL-1β it was 5.11.
In the case of `O=C(O)C1=CCCNC1` [Guvacine hydrochloride], in the data set with GABA uptake, the negative-log IC50 (pIC50) was 5.00.
`CC(C)=CCc1cc2ccc(=O)oc2cc1O` [7-demethylsuberosin]: in the data set with PGE2 production, the pIC50 was 5.03.
For `O=c1cc(-c2ccccc2)oc2c(O)c(O)cc(O)c12` [Norwogonin], in the data set on EV71, the “IC50, antiviral activity against Enterovirus 71” value is listed as “Norwogonin, isolated from Scutellaria baicalensis Georgi, possesses antiviral activity against Enterovirus 71 (IC50: 31.83 μg/ml)”.
`CCCCCCCCOC(=O)c1cc(O)c(O)c(O)c1` [Octyl gallate]: the “minimum inhibitory concentration (MIC) against H. pylori” value in the data set on H. pylori was 125 µg/mL (≈ 443 µM). The pIC50 in the data set with MDA-MB-231 and in the data set on MCF-7 was 4.40 throughout.
